Source: publication PMC10531095, “Photonics of Some Monomethine Cyanine Dyes in Solutions and in Complexes with Biomolecules” (International Journal of Molecular Sciences, 2023)

Target: T1, HSA (Homo sapiens, UniProt P02768)
T1 construct: purchased Sigma-Aldrich
Assay: FRET parameters between HSA donor fluorophores and MCD acceptors
Type: binding
Conditions: MCD acceptor
From the text: Quenching of intrinsic fluorescence of HSA can occur, in particular, due to energy transfer (Förster resonance energy transfer, FRET) from protein donor fluorophores to MCD acceptor molecules. In the MCD–HSA system, complexation brings acceptors and donors closer together and facilitates FRET. FRET is likely because HSA fluorescence and MCD absorption spectra overlap. For MCD and HSA, the overlap integrals J (see Equation (S7) in Supplementary Materials) were obtained in the order of 2.0–7.0 × 10^15 mol^−1 cm^−1 nm^4 (for MCD 4 see Figure S15 in Supplementary Materials). […] This is probably due to the strong aggregation of MCD 3 in the presence of HSA, which decreases the concentration of monomeric dye molecules active in fluorescence quenching (see Supplementary Materials, Figure S8). […] But as the dye concentration increases, its aggregation is built up steeply, and the fluorescence quenching diminishes.
The parameters of FRET between albumin donor chromophores (tyrosine and tryptophan amino acid residues of HSA) and acceptors (MCD 1–4 molecules) were determined from the spectral fluorescent data using the standard formulae for the spectral overlap integral J (M^−1 cm^−1 nm^4) and critical radius of energy transfer R0 (see Supplementary Material, Equations (S7) and (S8), respectively). […]

T1 sequence (P02768 25-609): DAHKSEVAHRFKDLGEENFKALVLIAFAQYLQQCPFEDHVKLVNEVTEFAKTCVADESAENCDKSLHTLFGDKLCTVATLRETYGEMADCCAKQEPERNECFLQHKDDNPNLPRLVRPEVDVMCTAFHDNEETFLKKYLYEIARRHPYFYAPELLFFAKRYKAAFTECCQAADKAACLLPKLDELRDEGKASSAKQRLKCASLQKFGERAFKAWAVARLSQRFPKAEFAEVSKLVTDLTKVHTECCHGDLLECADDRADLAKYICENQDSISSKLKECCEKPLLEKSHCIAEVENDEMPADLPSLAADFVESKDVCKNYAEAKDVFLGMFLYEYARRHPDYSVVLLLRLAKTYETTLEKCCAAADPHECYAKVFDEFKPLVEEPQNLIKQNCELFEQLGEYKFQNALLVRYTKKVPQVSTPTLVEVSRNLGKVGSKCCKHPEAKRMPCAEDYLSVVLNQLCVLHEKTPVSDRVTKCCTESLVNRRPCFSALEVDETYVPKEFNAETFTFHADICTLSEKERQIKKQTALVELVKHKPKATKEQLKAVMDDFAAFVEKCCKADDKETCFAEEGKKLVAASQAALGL

CCN1/C(=C/c2sc3ccccc3[n+]2CC)Sc2ccccc21 [MCD 3]
R0, Förster critical radius: ~ 50 Å
